Like-named read-outs stand apart in the source and are kept apart here.
Experiments:
IL-1β release = IL-1β release assay (PMA-differentiated THP-1 cells, LPS + nigericin, cleaved IL-1β by JESS); assay type: cell-based; details: Homo sapiens
Protocol: (§1) Approximately 1.5 million THP-1 cells were plated in each well of a 6-well TC plate and incubated with 40 nM PMA in RPMI (10% FBS, 1% Penstrep) for 24 hours. The media was then removed and cells were rested in RPMI (10% FBS, 1% Penstrep) for 24 hours after which time the media was removed and cells were pre-treated for 2 hours with various concentrations of compounds of interest (typically serial 3-fold dilution in RPMI +5% FBS, concentrations ranging from 1 μM to 0.5 nM) in RPMI (5% FBS). The media was again removed and cells were incubated with 250 ng/mL LPS and compounds of interest (concentrations as above) in RMPI (5% FBS) for 2 hours. The media was removed for a last time and cells were incubated with 20 μM nigericin and compounds of interest (concentrations as above) in Opti-MEM for 30 minutes. Cell media was then collected and the amount of cleaved IL-1β was determined using a JESS instrument (Protein Simple) and standard protocols. Cleaved 1-PD antibody was obtained from Cell Signaling (catalogue #83186S) and was used at 1:20 dilution in antibody diluent 2. Protein Simple 1× anti-Rabbit HRP secondary antibody was used along with Protein Simple luminol and peroxide for chemiluminescent detection. Primary antibody incubation time was increased from 30 minutes to 60 minutes.
as §1, with “RPMI+5%” for “RPMI +5%”, “Il-1β” for “1-PD”

[1] = biological target: T1, full-length recombinant human NEK7 (Homo sapiens, UniProt Q8TDX7); test: NEK7 enzymatic assay ([33P]-ATP, casein substrate); assay type: biochemical
T1 construct: full-length recombinant human NEK7; GST (N); purchased SignalChem N09-10G; host or cells: Sf9 insect cells (baculovirus)
T1 sequence (Q8TDX7 whole entry): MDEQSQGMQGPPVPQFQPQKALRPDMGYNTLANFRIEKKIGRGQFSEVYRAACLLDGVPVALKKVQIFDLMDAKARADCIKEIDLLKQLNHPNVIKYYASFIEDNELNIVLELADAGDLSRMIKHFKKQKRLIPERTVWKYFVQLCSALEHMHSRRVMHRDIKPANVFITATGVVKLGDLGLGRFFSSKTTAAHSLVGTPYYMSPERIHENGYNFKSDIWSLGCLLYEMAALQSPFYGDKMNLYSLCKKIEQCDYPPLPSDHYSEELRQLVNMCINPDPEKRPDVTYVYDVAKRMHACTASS
In short: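 GST-tagged enzyme, baculovirus-expressed in Sf9 cells, was mixed with casein in 20 mM Hepes pH 7.5, 10 mM MgCl2, 1 mM EGTA, 0.02% Brij35, 2 mM DTT, 1% DMSO. Compounds (3-fold series, 10 μM–0.5 nM) were preincubated 20 min at RT, then [33P]-ATP was added for 2 h at RT. P81 filter-bound radioactivity was expressed as % of vehicle activity and fitted to IC50.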

[2] = THP-1, comparative compounds of Structure (II), read-out: IL-1β release IC50
[3] = comparative compounds of Structure (II)
[4] = Table 2a, THP-1 cells, LPS + nigericin, read-out: II-1β release IC50
[5] = Table 2a, recombinant human NEK7, casein substrate
[6] = Table 2b, THP-1 cells, LPS + nigericin, read-out: Il-1β release IC50
[7] = Table 2b, recombinant human NEK7, casein substrate
[8] = 48 h, Table 2d, THP-1 cells, LPS + nigericin, read-out: IL-1β release IC50
[9] = Table 2d, recombinant human NEK7, casein substrate

CC(C)n1nc(-c2ccc3c(c2F)CCN3C(=O)Cc2cc(C(F)(F)F)ccc2F)c2c(N)ncnc21 [II-11, 1-(5-(4-amino-1-isopropyl-1H-pyrazolo[3,4-d]pyrimidin-3-yl)-4-fluoroindolin-l-yl)-2-(2-fluoro-5-(trifluoromethyl)phenyl)ethan-1-one]
IC50 (IL-1β release; [2]): > 1000 nM | IC50 [1, 3]: < 150 nM

Nc1ncnc2c1c(-c1ccc3c(c1F)CCN3C(=O)Cc1cc(C(F)(F)F)ccc1F)nn2C1COC1 [II-12, 1-(5-(4-amino-1-(oxetan-3-yl)-1H-pyrazolo[3,4-d]pyrimidin-3-yl)-4-fluoroindolin-1-yl)-2-(2-fluoro-5-(trifluoromethyl)phenyl)ethan-1-one]
IC50 (IL-1β release; [2]): > 1000 nM | IC50 [1, 3]: < 150 nM

Nc1ncnc2c1c(-c1ccc3c(c1F)CCN3C(=O)Cc1ccc(F)c(C(F)(F)F)c1)nn2C1CCOCC1 [II-14, 1-(5-(4-amino-1-(tetrahydro-2H-pyran-4-yl)-1H-pyrazolo[3,4-d]pyrimidin-3-yl)-4-fluoroindolin-1-yl)-2-(4-fluoro-3-(trifluromethyl)phenyl)ethan-1-one]
IC50 (IL-1β release; [2]): > 1000 nM | IC50 [1, 3]: < 150 nM

Nc1ncnc2c1c(-c1ccc3c(c1Cl)CCN3C(=O)Cc1cc(C(F)(F)F)ccc1F)cn2C1CC1 [II-16, 1-(5-(4-amino-7-cyclopropyl-7H-pyrrolo[2,3-d]pyrimidin-5-yl)-4-chloroindolin-1-yl)-2-(2-fluoro-5-(trifluoromethyl)phenyl)ehtan-1-one]
IC50 (IL-1β release; [2]): > 1000 nM | IC50 [1, 3]: < 150 nM

Nc1ncnc2c1c(-c1ccc3c(c1F)CCN3C(=O)Cc1cc(C(F)(F)F)ccc1F)cn2C1CC1 [II-17, 1-(5-(4-amino-7-cyclopropyl-7H-pyrrolo[2,3-d]pyrimidin-5-yl)-4-fluoroindolin-1-yl)-2-(2-fluoro-5-(trifluoromethyl)phenyl)ethan-1-one]
IC50 (IL-1β release; [2]): > 1000 nM | IC50 [1, 3]: < 150 nM

CC(C)(C)c1cc(NC(=O)Nc2ccc(-c3nn(C4COC4)c4ncnc(N)c34)cc2F)on1 [Ia-12, 1-(4-(4-amino-1-(oxetan-3-yl)-1H-pyrazolo[3,4-d]pyrimidin-3-yl)-2-fluorophenyl)-3-(3-(tert-butyl)isoxazol-5-yl)urea]
IC50 (IL-1β release; [4]): < 150 nM | IC50 [1, 5]: < 150 nM

CC(C)(C)c1cc(NC(=O)Nc2ccc(-c3nn(C4CC4)c4ncnc(N)c34)cc2F)on1 [Ia-13, 1-(4-(4-amino-1-cyclopropyl-1H-pyrazolo[3,4-d]pyrimidin-3-yl)-2-fluorophenyl)-3-(3-(tert-butyl)isoxazol-5-yl)urea]
IC50 (IL-1β release; [4]): < 150 nM | IC50 [1, 5]: < 150 nM

CC(C)(C)c1cc(NC(=O)Nc2ccc(-c3nn(C4CCN(C5COC5)CC4)c4ncnc(N)c34)cc2F)on1 [Ia-14, 1-(4-(4-amino-1-(1-(oxetan-3-yl)piperidin-4-yl)-1H-pyrazolo[3,4-d]pyrimidin-3-yl)-2-fluorophenyl)-3-(3-(tert-butyl)isoxazol-5-yl)urea]
IC50 (IL-1β release; [4]): < 150 nM | IC50 [1, 5]: < 150 nM

Nc1ncnc2c1c(-c1ccc(NC(=O)Nc3cc(C4(C(F)(F)F)CC4)no3)c(F)c1)nn2C1CC1 [Ia-21]
IC50 (IL-1β release; [4]): < 150 nM | IC50 [1, 5]: < 150 nM

Nc1ncnc2c1c(-c1ccc(NC(=O)Nc3cc(C4(C(F)(F)F)CC4)on3)c(F)c1)nn2C1CC1 [Ia-25, 1-(4-(4-amino-1-cyclopropyl-1H-pyrazolo[3,4-d]pyrimidin-3-yl)-2-fluorophenyl)-3-(5-(1-(trifluoromethyl)cyclopropyl)isoxazol-3-yl)urea]
IC50 (IL-1β release; [4]): < 150 nM | IC50 [1, 5]: < 150 nM

CC(C)(C)c1cc(NC(=O)Nc2ccc(-c3nn(C4CC4)c4ccnc(N)c34)cc2F)on1 [Ia-30, 1-(4-(4-amino-1-cyclopropyl-1H-pyrazolo[4,3-c]pyridin-3-yl)-2-fluorophenyl)-3-(3-(tert-butyl)isoxazol-5-yl)urea]
IC50 (IL-1β release; [4]): < 150 nM | IC50 [1, 5]: < 150 nM

CC1(c2cc(NC(=O)Nc3ccc(-c4nn(C5CC5)c5ncnc(N)c45)cc3F)on2)CC1 [Ia-32, 1-(4-(4-amino-1-cyclopropyl-1H-pyrazolo[3,4-d]pyrimidin-3-yl)-2-fluorophenyl)-3-(3-(1-methylcyclopropyl)isoxazol-5-yl)urea]
IC50 (IL-1β release; [4]): 151 to 300 nM | IC50 [1, 5]: < 150 nM

CC(C)(C)c1nnc(NC(=O)Nc2ccc(-c3nn(C4CC4)c4ncnc(N)c34)cc2F)s1 [Ia-33, 1-(4-(4-amino-1-cyclopropyl-1H-pyrazolo[3,4-d]pyrimidin-3-yl)-2-fluoropbenyl)-3-(5-(tert-butyl)-1,3,4-thiadiazol-2-yl)urea]
IC50 (IL-1β release; [4]): 301 to 500 nM | IC50 [1, 5]: 501 to 1500 nM

Nc1nccc2c1c(-c1ccc(NC(=O)Nc3cc(C4(C(F)(F)F)CC4)no3)c(F)c1)nn2C1CC1 [Ia-45, 1-(4-(4-amino-1-cyclopropyl-1H-pyrazolo[4,3-c]pyridin-3-yl)-2-fluorophenyl)-3-(3-(1-(trifluoromethyl)cyclopropyl)isoxazol-5-yl)urea]
IC50 (IL-1β release; [4]): 151 to 300 nM | IC50 [1, 5]: 151 to 300 nM

Cc1c[nH]c2nccc(Oc3ccc(NC(=O)Nc4cc(C(C)(C)C)nn4-c4ccccc4)c(F)c3)c12 [Ib-4, 1-(3-(tert-butyl)-1-phenyl-1H-pyrazol-5-yl)-3-(2-fluoro-4-((3-methyl-1H-pyrrolo[2,3-b]pyridin-4-yl)oxy)phenyl)urea]
IC50 (IL-1β release; [6]): < 150 nM | IC50 [1, 7]: 501 to 1500 nM

Cc1cc2c(Oc3ccc(NC(=O)Nc4cc(C(C)(C)C)nn4-c4ccccc4)c(F)c3)ccnc2[nH]1 [Ib-5, 1-(3-(tert-butyl)-1-phenyl-1H-pyrazol-5-yl)-3-(2-fluoro-4-((2-methyl-1H-pyrrolo[2,3-b]pyridin-4-yl)oxy)phenyl)urea]
IC50 (IL-1β release; [6]): 151 to 300 nM | IC50 [1, 7]: > 1500 nM

CC(C)(C)c1cc(NC(=O)Nc2c(F)cc(Oc3ccnc4[nH]cc(Cl)c34)cc2F)n(-c2ccccc2)n1 [Ib-8]
IC50 (IL-1β release; [6]): 301 to 500 nM | IC50 [1, 7]: > 1500 nM

CC(C)(C)c1cc(NC(=O)Nc2ccc(Oc3ccnc4[nH]cc(Cl)c34)c(F)c2)n(-c2ccccc2)n1 [Ib-12, 1-(3-(tert-butyl)-1-phenyl-1H-pyrazol-5-yl)-3-(4-((3-chloro-1H-pyrrolo[2,3-b]pyridin-4-yl)oxy)-3-fluorophenyl)urea]
IC50 (IL-1β release; [6]): < 150 nM | IC50 [1, 7]: 501 to 1500 nM

Cc1[nH]c2nccc(Oc3ccc(NC(=O)Nc4cc(C(C)(C)C)nn4-c4ccccc4)c(F)c3)c2c1Cl [Ib-14]
IC50 (IL-1β release; [6]): > 1000 nM | IC50 [1, 7]: 501 to 1500 nM

CC(C)(C)c1cc(NC(=O)Nc2ccc(Oc3ccnc4[nH]cc(C5CC5)c34)cc2F)n(-c2ccccc2)n1 [Ib-18, 1-(3-(tert-butyl)-1-phenyl-1H-pyrazol-5-yl)-3-(4-((3-cyclopropyl-1H-pyrrolo[2,3-b]pyridin-4-yl)oxy)-2-fluorophenyl)urea]
IC50 (IL-1β release; [6]): < 150 nM | IC50 [1, 7]: 501 to 1500 nM

CN1CCN(Cc2ccc(NC(=O)Nc3ccc(-c4nn(C5CC5)c5ncnc(N)c45)cc3F)cc2F)CC1 [Id-27, 1-(4-(4-amino-1-cyclopropyl-1H-pyrazolo[3,4-d]pyrimidin-3-yl)-2-fluorophenyl)-3-(3-fluoro-4-((4-methylpiperazin-1-yl)methyl)phenyl)urea]
IC50 (IL-1β release; [8]): < 150 nM | IC50 [1, 9]: < 150 nM

CN1CCN(Cc2ccc(NC(=O)Nc3ccc(-c4nn(CC(C)(C)O)c5ncnc(N)c45)cc3F)cc2C(F)(F)F)CC1 [Id-28, 1-(4-(4-amino-1-(2-hydroxy-2-methylpropyl)-1H-pyrazolo[3,4-d]pyrimidin-3-yl)-2-fluorophenyl)-3-(4-((4-methylpiperazin-1-yl)methyl)-3-(trifluoromethyl)phenyl)urea]
IC50 (IL-1β release; [8]): < 150 nM | IC50 [1, 9]: < 150 nM

CN1CCN(Cc2ccc(NC(=O)Nc3ccc(-c4nn(C5CC5)c5ccnc(N)c45)cc3F)cc2C(F)(F)F)CC1 [Id-30, 1-(4-(4-amino-1-cyclopropyl-1H-pyrazolo[4,3-c]pyridin-3-yl)-2-fluorophenyl)-3-(4-((4-methylpiperazin-1-yl)methyl)-3-(trifluoromethyl)phenyl)urea]
IC50 (IL-1β release; [8]): < 150 nM | IC50 [1, 9]: < 150 nM
